Converted amounts (≈) assume the structure as drawn. Where two headings read alike, the source gives them in different places.
How the values were obtained:
[1] = tested on: M. hyopneumoniae JF 435; assay: MIC against Mycoplasma in vitro (Friis broth with agarose); assay type: cell-based; details: Mesomycoplasma hyopneumoniae, JF435, 144 h; M. hyopneumoniae JF 435; 6 days at 37° C; read-out: MIC
[2] = tested on: M. hyopneumoniae Str. 11; assay: as above; assay type: cell-based; details: Mesomycoplasma hyopneumoniae, 144 h; M. hyopneumoniae Str. 11; 6 days at 37° C; read-out: MIC
[3] = tested on: M. hyopneumoniae J2206/183^b; assay: as above; assay type: cell-based; details: Mesomycoplasma hyopneumoniae, 144 h; M. hyopneumoniae J2206/183^b; 6 days at 37° C; read-out: MIC
[4] = tested on: M. hyopneumoniae MS 16; assay: as above; assay type: cell-based; details: Mesomycoplasma hyopneumoniae, MS16, 144 h; M. hyopneumoniae MS 16; 6 days at 37° C; read-out: MIC
[5] = tested on: M. hyopneumoniae UCD 1; assay: as above; assay type: cell-based; details: Mesomycoplasma hyopneumoniae, UCD1, 144 h
[6] = tested on: M. hyopneumoniae ATCC 25095; assay: as above; assay type: cell-based; details: Mesomycoplasma hyopneumoniae, ATCC25095, 144 h; M. hyopneumoniae ATCC 25095; 6 days at 37° C; read-out: MIC
[7] = tested on: M. hyopneumoniae NCTC 101101; assay: as above; assay type: cell-based; details: Mesomycoplasma hyopneumoniae, NCTC101101, 144 h; M. hyopneumoniae NCTC 101101; 6 days at 37° C; read-out: MIC
[8] = tested on: M. hyorhinis ATCC 23234; assay: as above; assay type: cell-based; details: Mesomycoplasma hyorhinis, ATCC23234, 144 h; M. hyorhinis ATCC 23234; 6 days at 37° C; read-out: MIC
[9] = tested on: M. hyorhinis ATCC 25021; assay: as above; assay type: cell-based; details: Mesomycoplasma hyorhinis, ATCC25021, 144 h; M. hyorhinis ATCC 25021; 6 days at 37° C; read-out: MIC
[10] = tested on: M. bovis NCTC 10131; assay: microbe, parasite or virus in culture; assay type: cell-based; details: NCTC10131, 144 h
[11] = tested on: M. gallisepticum S6; assay: MIC against Mycoplasma in vitro (Friis broth with agarose); assay type: cell-based; details: Mycoplasmoides gallisepticum, 144 h; M. gallisepticum S6; 6 days at 37° C; read-out: MIC
[12] = tested on: M. pneumoniae ATCC 15492; assay: as above; assay type: cell-based; details: Mycoplasmoides pneumoniae, ATCC15492, 144 h; M. pneumoniae ATCC 15492; 6 days at 37° C; read-out: MIC
[13] = tested on: Bacillus subtilis 6633; assay: MIC against human bacteria in vitro (nutrient agar, chocolated horse blood); assay type: cell-based; details: human; Bacillus subtilis 6633; 18 hours at 37° C; read-out: MIC
Method: (§1) The activity of the normonyl derivaties of the Examples against various bacteria which are important in diseases of humans, was assayed in vitro using serial dilutions in nurient agar with 5% chocolated horse blood.

[14] = tested on: E. coli NCTC 10418; assay: as above; assay type: cell-based; details: Escherichia coli, NCTC10418; human; E. coli NCTC 10418; 18 hours at 37° C; read-out: MIC
Method: as §1

[15] = tested on: P. mirabilis 889; assay: as above; assay type: cell-based; details: Proteus mirabilis; human; P. mirabilis 889; 18 hours at 37° C; read-out: MIC
Method: as §1

[16] = tested on: Pasteurella multocida 1633; assay: as above; assay type: cell-based; details: human; Pasteurella multocida 1633; 18 hours at 37° C; read-out: MIC
Method: as §1

[17] = tested on: Ps. aeruginosa NCTC 10662; assay: as above; assay type: cell-based; details: Pseudomonas aeruginosa, NCTC10662; human; Ps. aeruginosa NCTC 10662; 18 hours at 37° C; read-out: MIC
Method: as §1

[18] = tested on: Sarcina lutea 8340; assay: as above; assay type: cell-based; details: Micrococcus luteus; human; Sarcina lutea 8340; 18 hours at 37° C; read-out: MIC
Method: as §1

[19] = tested on: Staph. aureus Russell; assay: as above; assay type: cell-based; details: Staphylococcus aureus; human; Staph. aureus Russell; 18 hours at 37° C; read-out: MIC
Method: as §1

[20] = tested on: Staph. aureus W2827; assay: as above; assay type: cell-based; details: Staphylococcus aureus; human; Staph. aureus W2827; 18 hours at 37° C; read-out: MIC
Method: as §1

[21] = tested on: Strep. agalactiae 2788-B; assay: as above; assay type: cell-based; details: Streptococcus agalactiae; human; Strep. agalactiae 2788-B; 18 hours at 37° C; read-out: MIC
Method: as §1

[22] = tested on: Strep. faecalis I; assay: as above; assay type: cell-based; details: Enterococcus faecalis; human; Strep. faecalis I; 18 hours at 37° C; read-out: MIC
Method: as §1

[23] = tested on: Strep. spp. 64/848-C; assay: as above; assay type: cell-based; details: human; Strep. spp. 64/848-C; 18 hours at 37° C; read-out: MIC
Method: as §1

[24] = tested on: E. coli E1; assay: MIC against veterinary bacteria in vitro (Diagnostic Sensitivity Test Agar); details: Escherichia coli, E1, 18 h
Method: (§2) The activity of the normonyl derivatives of the Examples against various veterinarily important bacteria, was assayed in vitro using two-fold serial dilutions in Diagnostic Sensitivity Test Agar inoculated with 10^4 organisms.

[25] = tested on: Bord. bronchiseptica B08; assay: as above; details: Bordetella bronchiseptica, B08, 18 h
Method: as §2

[26] = tested on: Past. multocida PA1; assay: as above; details: Pasteurella multocida, PA1, 18 h
Method: as §2

[27] = tested on: Erysipelothrix rhusiopathiae NCTC 8163; assay: as above; details: NCTC8163, 18 h
Method: as §2

[28] = tested on: Corynebacterium pyogenes CY1; assay: as above; details: CY1, 18 h
Method: as §2

[29] = tested on: Staph. aureus 152 (pen. sens); assay: as above; details: Staphylococcus aureus, 18 h
Method: as §2

[30] = tested on: Strep. uberis SPU1; assay: as above; details: Streptococcus uberis, SPU1, 18 h
Method: as §2

## CC(=Cc1nc(-c2ccccc2)no1)CC1OCC(CC2OC2C(C)C(C)O)C(O)C1O (stereo not drawn) [Example 15, 5-(1-Normon-2-yl)-3-phenyl-1,2,4-oxadiazole A]
[1]
  MIC: 10 µg/mL (≈ 22.5 µM)
[2]
  MIC: 5 µg/mL (≈ 11.2 µM)
[3]
  MIC: 10 µg/mL (≈ 22.5 µM)
[4]
  MIC: 5 µg/mL (≈ 11.2 µM)
[5]; M. hyopneumoniae UCD 1, 6 days at 37° C, read-out: MIC
  MIC: 10 µg/mL (≈ 22.5 µM)
[6]
  MIC: 5 µg/mL (≈ 11.2 µM)
[7]
  MIC: 10 µg/mL (≈ 22.5 µM)
[8]
  MIC: 5 µg/mL (≈ 11.2 µM)
[9]
  MIC: 2.5 µg/mL (≈ 5.62 µM)
[10]
  MIC: 0.1 µg/mL (≈ 0.225 µM)
[11]
  MIC: > 10 µg/mL
[12]
  MIC: > 10 µg/mL
[13]
  MIC: 32 µg/mL (≈ 72 µM)
[14]
  MIC: > 128 µg/mL
[15]
  MIC: > 128 µg/mL
[16]
  MIC: 64 µg/mL (≈ 144 µM)
[17]
  MIC: > 128 µg/mL
[18]
  MIC: > 128 µg/mL
[19]
  MIC: 32 µg/mL (≈ 72 µM)
[20]
  MIC: 32 µg/mL (≈ 72 µM)
[21]
  MIC: 64 µg/mL (≈ 144 µM)
[22]
  MIC: > 128 µg/mL
[23]
  MIC: 64 µg/mL (≈ 144 µM)
[24]
  MIC: > 80 µg/mL
[25]
  MIC: > 80 µg/mL
[26]
  MIC: 40 µg/mL (≈ 90 µM)
[27]
  MIC: 40 µg/mL (≈ 90 µM)
[28]
  MIC: > 80 µg/mL
[29]
  MIC: 5 µg/mL (≈ 11.2 µM)
[30]
  MIC: 2.5 µg/mL (≈ 5.62 µM)

## CC(=Cc1noc(-c2ccccc2)n1)CC1OCC(CC2OC2C(C)C(C)O)C(O)C1O (stereo not drawn) [Example 17, 3-(1-Normon-2-yl)-5-phenyl-1,2,4-oxadiazole]
[1]
  MIC: 5 µg/mL (≈ 11.2 µM)
[2]
  MIC: 1 µg/mL (≈ 2.25 µM)
[3]
  MIC: 2.5 µg/mL (≈ 5.62 µM)
[4]
  MIC: 1 µg/mL (≈ 2.25 µM)
[5]
  MIC: 2.5 µg/mL (≈ 5.62 µM)
[6]
  MIC: 1 µg/mL (≈ 2.25 µM)
[7]
  MIC: 2.5 µg/mL (≈ 5.62 µM)
[8]
  MIC: 2.5 µg/mL (≈ 5.62 µM)
[9]
  MIC: 2.5 µg/mL (≈ 5.62 µM)
[10]
  MIC: 0.05 µg/mL (≈ 0.112 µM)
[11]
  MIC: 10 µg/mL (≈ 22.5 µM)
[12]
  MIC: > 10 µg/mL
[13]
  MIC: 2 µg/mL (≈ 4.5 µM)
[14]
  MIC: > 128 µg/mL
[15]
  MIC: > 128 µg/mL
[16]
  MIC: 16 µg/mL (≈ 36 µM)
[17]
  MIC: > 128 µg/mL
[18]
  MIC: > 128 µg/mL
[19]
  MIC: 4 µg/mL (≈ 9 µM)
[20]
  MIC: 4 µg/mL (≈ 9 µM)
[21]
  MIC: 8 µg/mL (≈ 18 µM)
[22]
  MIC: > 128 µg/mL
[23]
  MIC: 8 µg/mL (≈ 18 µM)
[24]
  MIC: > 80 µg/mL
[25]
  MIC: > 80 µg/mL
[26]
  MIC: 2.5 µg/mL (≈ 5.62 µM)
[27]
  MIC: 10 µg/mL (≈ 22.5 µM)
[28]
  MIC: > 80 µg/mL
[29]
  MIC: 1.25 µg/mL (≈ 2.81 µM)
[30]
  MIC: 0.625 µg/mL (≈ 1.41 µM)
